Source: patent US20200308144A1, “Multimeric piperidine derivatives” (Bellicum Pharmaceuticals, Inc., priority 2017, published 2020)
Read-outs that look alike come from different tables or passages of the source.

What was measured:
[1] = Stability of salt forms under accelerated conditions of heat and humidity; format: physicochemical
Method: The stability of different salt forms of Compound A was assayed under accelerated conditions of heat and humidity for 7 and for 14 days. All salts were […] up to 40° C. and 75% relative humidity (RH), but appeared to degrade under severe temperature and humidity conditions of 80° C. with or without 80% relative humidity. (Table 3)

[2] = Solubility in water and buffers; format: physicochemical; conditions: buffer system None (unbuffered water)
Excerpt: By “soluble” or “solubility” is meant the property of a compound to dissolve in water, buffer, or other liquid, which may be measured in terms of mg·mL^−1. […] Examples of pharmaceutically acceptable buffers include those provided in Remington: The Science and Practice of Pharmacy, 22 ed., 2013, Pharmaceutical Press, London (Allen, L. V., Jr., ed.). […] Methods for evaluating the solubility of a compound include, for example, a 96-well plate-based assay in which aqueous suspensions of the compound are vacuum-filtered and the concentration of compound is measured by UV spectrophotometry (Roy et al (2001) Drug Dev Ind Pharm 27(1):107-109).

[3] = cited from earlier work
[4] = system: cells; conditions: cited from earlier work
[5] = cited from earlier work; remark: listed apart in the source
[6] = system: cells; test: AP1903 amount needed in vitro for effective signaling of cells; format: cell-based; conditions: converted with 1600 Da
Method: The fixed dose of AP1903 for injection used, for example, may be 0.4 mg/kg intravenously infused over 2 hours. The amount of AP1903 needed in vitro for effective signaling of cells is 10-100 nM (1600 Da MVV). This equates to 16-160 μg/L or ˜[…] (1.6-160 μg/kg). Doses up to 1 mg/kg were well-tolerated in the Phase 1 study of AP1903 discussed above. Therefore, 0.4 mg/kg may be a safe and effective dose of AP1903 for this Phase I study in combination with the therapeutic cells.

SMILES	Assay (%) ([1]; 25° C./60% RH, 7 D)	Assay (%) ([1]; 25° C./60% RH, 14 D)	Assay (%) ([1]; 40° C./75% RH, 7 D)	Assay (%) ([1]; 40° C./75% RH, 14 D)	Assay (%) ([1]; 80° C., 7 D)	Assay (%) ([1]; 80° C., 14 D)	Assay (%) ([1]; 80° C./80% RH, 7 D)	Assay (%) ([1]; 80° C./80% RH, 14 D)	Inherent pH in parenthesis [2]	solubility in water [3]	amount needed in vitro for effective signaling of cells [4] [nM]	plasma levels versus dose ([5]; 0.01-1.0 mg/kg IV over 2 hours)	plasma level as % of maximal concentration ([5]; 0.5 hours post-dose)	plasma level as % of maximal concentration ([5]; 2 hours post-dose) [%]	plasma level as % of maximal concentration ([5]; 10 hours post-dose) [%]	well-tolerated doses ([5]; Phase 1 study)	mean Cmax ([5]; healthy volunteers, single doses 0.01-1.0 mg/kg infused IV over 2 hours) [ng/mL]	amount needed in vitro for effective signaling of cells, converted [6] [µg/L]
CC[C@H](C(=O)N1CCCC[C@H]1C(=O)O[C@H](CCc1ccc(OC)c(OC)c1)c1cccc(OCCN(C)CCN(C)CCOc2cccc([C@@H](CCc3ccc(OC)c(OC)c3)OC(=O)[C@@H]3CCCCN3C(=O)[C@@H](CC)c3cc(OC)c(OC)c(OC)c3)c2)c1)c1cc(OC)c(OC)c(OC)c1.O=P(O)(O)O [Compound A.1]	96.2	95.9	95.6	95.9	94.9	93.3	85.2	77.7	3.9	–	–	–	–	–	–	–	–	–
CC[C@H](C(=O)N1CCCC[C@H]1C(=O)O[C@H](CCc1ccc(OC)c(OC)c1)c1cccc(OCCN(C)CCN(C)CCOc2cccc([C@@H](CCc3ccc(OC)c(OC)c3)OC(=O)[C@@H]3CCCCN3C(=O)[C@@H](CC)c3cc(OC)c(OC)c(OC)c3)c2)c1)c1cc(OC)c(OC)c(OC)c1.O=S(=O)(O)c1ccccc1	92.2	91.7	92.2	92.2	91.5	90.6	91.2	90.	4.3	–	–	–	–	–	–	–	–	–
CC[C@H](C(=O)N1CCCC[C@H]1C(=O)O[C@H](CCc1ccc(OC)c(OC)c1)c1cccc(OCCN(C)CCN(C)CCOc2cccc([C@@H](CCc3ccc(OC)c(OC)c3)OC(=O)[C@@H]3CCCCN3C(=O)[C@@H](CC)c3cc(OC)c(OC)c(OC)c3)c2)c1)c1cc(OC)c(OC)c(OC)c1.O=S(=O)(O)O [Sulphate]	96.2	95.0	95.9	95.6	95.3	94.6	88.2	85.4	3.06	–	–	–	–	–	–	–	–	–
CC[C@H](C(=O)N1CCCC[C@H]1C(=O)O[C@H](CCc1ccc(OC)c(OC)c1)c1cccc(OCC(=O)NCCNC(=O)COc2cccc([C@@H](CCc3ccc(OC)c(OC)c3)OC(=O)[C@@H]3CCCCN3C(=O)[C@@H](CC)c3cc(OC)c(OC)c(OC)c3)c2)c1)c1cc(OC)c(OC)c(OC)c1 [rimiducid]	–	–	–	–	–	–	–	–	–	approximately 700 pM	10 to 100	directly proportional to dose	approximately 18%	~7	~1	up to 1 mg/kg	10 to 1275	16 to 160
CC[C@H](C(=O)N1CCCC[C@H]1C(=O)O[C@H](CCc1ccc(OC)c(OC)c1)c1cccc(OCCN(C)CCN(C)CCOc2cccc([C@@H](CCc3ccc(OC)c(OC)c3)OC(=O)[C@@H]3CCCCN3C(=O)[C@@H](CC)c3cc(OC)c(OC)c(OC)c3)c2)c1)c1cc(OC)c(OC)c(OC)c1.O=C(O)/C=C/C(=O)O [Fumarate]	97.5	97.1	97.2	96.8	96.6	95.8	87.5	81.2	3.4	–	–	–	–	–	–	–	–	–
CC[C@H](C(=O)N1CCCC[C@H]1C(=O)O[C@H](CCc1ccc(OC)c(OC)c1)c1cccc(OCCN(C)CCN(C)CCOc2cccc([C@@H](CCc3ccc(OC)c(OC)c3)OC(=O)[C@@H]3CCCCN3C(=O)[C@@H](CC)c3cc(OC)c(OC)c(OC)c3)c2)c1)c1cc(OC)c(OC)c(OC)c1.Cl [Compound A.2]	97.3	96.7	97.2	96.9	96.3	94.8	95.6	94.4	2.9	–	–	–	–	–	–	–	–	–
